Laboratory results as given in ChEMBL document CHEMBL3351333, “Structural analysis of a novel small molecule ligand bound to the CXCL12 chemokine” (J Med Chem, 2014).

Target: Stromal cell-derived factor 1 (Homo sapiens) (UniProt P48061)
Assay: Binding affinity to CXCL12 in human THP1 cells assessed as inhibition of CXCL12-induced cell migration at 25 uM incubated for 2 hrs by flow cytometry based chemotaxis assay
Settings: THP-1

Chain of Stromal cell-derived factor 1 (Homo sapiens) (P48061 whole entry): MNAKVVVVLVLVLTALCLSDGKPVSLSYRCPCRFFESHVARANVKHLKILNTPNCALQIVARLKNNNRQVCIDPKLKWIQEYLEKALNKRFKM

O=C(Nc1ccccc1)Nc1ccc(-c2nnn[nH]2)cc1
inhibition: 20%

O=C(NCCc1ccccc1)Nc1ccc(-c2nnn[nH]2)cc1
inhibition: 40%
